Reference: patent US10272041B2, “Acid stable liposomal compositions and methods for producing the same” (The Penn State Research Foundation, priority 2013, dated 2019)

Tested on: MDA-MB-231 cells
Assay: Cell viability/cell growth, cells re-treated every 48 hours
Format: cell-based
Conditions: triple negative breast cancer cells
Procedure: MDA-MB-231 cells were plated on a 96-well plate at 10,000 cells per well to evaluate the effects of BSA alone, conjugated DHA-BSA, Liposomal DHA, and a ghost liposome on cell viability. The cells were re-treated every 48 hours. […] All treatments were compared to the cell/media control. The ghost had no effect on cell viability.

Structure (SMILES): CC/C=C\C/C=C\C/C=C\C/C=C\C/C=C\C/C=C\CCC(=O)O [DHA, Docosahexanoic acid]
- concentration that inhibits cell growth with comparable effect: 25 to 50 µM
